Measured values published in patent publication US20210023065A1, “AMPHIPHILIC THIOL COMPOUNDS AND USES THEREOF” (THE REGENTS OF THE UNIVERSITY OF CALIFORNIA, priority 2018, published 2021).

What was measured:
Gα(i) = assay: Acyl resin-assisted capture detection of Gα(i) palmitoylation in HeLa cells; assay type: cell-based; details: 1.25 μmol/10^7 cells, relative to vehicle
Protocol: (§1) HeLa cells were grown to confluency in 10 cm plates. Stock solutions of compounds were prepared in DMSO as before and diluted to the final indicated concentration in 5.5 mL of OptiMEM media before adding to cells. Cells were incubated at 37° C. for 20 min and then media removed and 3 mL of HBSS added to each plate. Cells were detached using a cell scraper, pelleted by centrifugation at 1,000 rcf for 5 min and the pellet processed using a CAPTUREome S-Palmitoylated Protein Kit (Badrilla, UK) according to the manufacturer's protocol. Samples were resolved by electrophoresis using 4-20% SDS-polyacrylamide gels (Bio-Rad) under denaturing and reducing conditions. Proteins were then electrotransferred to a PVDF membrane (Bio-Rad). […]
(§2) Assays were performed in 3 biological replicates. […] Western blots were analyzed using ImageJ^1. […]

[1] = AMD model reaction with S-palmitoyl MESNA (HPLC/ELSD/MS); details: 5 mM each reactant, NaH2PO4 buffer 200 mM pH 7.1, 10 mM TCEP, 25° C.
Protocol: The reaction was stirred at 25° C. and aliquots taken at the specified time points and subjected to HPLC/ELSD/MS analysis (Eclipse Plus C8 analytical column, 50-95% MeOH in H2O with 0.1% TFA, 0-7 min; 95% MeOH in H2O with 0.1% TFA, 7 min-end).

HeLa cells = assay: MS detection of AMD product 4 in HeLa cell lipid extracts; assay type: cell-based; details: 200 μM 1 with 400 μM TCEP, 20 min
Protocol: HeLa cells were grown to confluency in two 6 cm plates. Once confluent, media was removed and cells washed 1× with HBSS. Stock solutions were prepared as before. From these stocks, solutions of 200 μM 1 (with 400 μM TCEP) or 400 μM TCEP were prepared in OptiMEM media. To each plate was added 3 mL OptiMEM+400 μM TCEP or OptiMEM+200 μM 1 (with 400 μM TCEP). Cells were incubated at 37° C. for 20 min and then media removed and 3 mL of HBSS added to each plate. Cells were detached using a cell scraper, pelleted by centrifugation at 1,000 rcf for 5 min and the pellet subjected to a lipid extraction using the Bligh and Dyer method.^3 Lipid extracts were analyzed for the presence of the AMD product palmityl-N-L-Cys-Oct (4) using reverse phase chromatography on an HP 1100 LC station to a Thermo LCQdeca-MS running in ESI Positive Ion Mode. MS/MS analysis was performed on the [M+H]^+ peak of 4 (m/z 471) then selected reaction monitoring on the fragmentation peak (m/z 130) (FIG. 9).

flotillin-2 = target: T1, flotillin-2 (Homo sapiens, UniProt Q14254); assay: Acyl resin-assisted capture detection of flotillin-2 palmitoylation in HeLa cells; assay type: cell-based; details: 1.25 μmol/10^7 cells, relative to vehicle
T1 construct: we detected the palmitoylation levels of eight known palmitoylated proteins after treatment with 1; endogenous in cells; host or cells: HeLa
T1 sequence (Q14254 1-428): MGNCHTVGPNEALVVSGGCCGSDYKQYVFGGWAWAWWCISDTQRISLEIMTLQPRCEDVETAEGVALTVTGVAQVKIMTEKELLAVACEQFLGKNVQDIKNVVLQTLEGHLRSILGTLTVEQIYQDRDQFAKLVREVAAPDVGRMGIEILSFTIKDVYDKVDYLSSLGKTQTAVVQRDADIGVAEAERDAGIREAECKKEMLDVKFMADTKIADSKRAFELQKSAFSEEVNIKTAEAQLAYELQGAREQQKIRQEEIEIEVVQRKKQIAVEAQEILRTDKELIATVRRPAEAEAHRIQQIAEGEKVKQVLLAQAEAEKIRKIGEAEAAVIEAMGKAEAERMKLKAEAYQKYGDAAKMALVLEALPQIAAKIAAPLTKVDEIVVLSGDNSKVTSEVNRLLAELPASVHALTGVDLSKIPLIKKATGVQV
Protocol: as §1, §2

ERK1/2 (pY204/pY187) = assay: Detection of ERK1/2 phosphorylation in T24 cells (western blot); assay type: cell-based, human; details: T24 cells (oncogenic HRas mutation), 1.25 μmol/10^7 cells, 1 h
Protocol: T24 cells were grown to confluency in 6 cm plates. Stock solutions of compounds were prepared in DMSO as before and diluted to the final indicated concentration in 2 mL of OptiMEM media before adding to cells. Cells were incubated at 37° C. for 1 h and then media removed and 1.5 mL of HBSS added to each plate. Cells were detached using a cell scraper, pelleted by centrifugation at 1,000 rcf for 5 min and the pellet processed using MPER™ Mammalian Protein Extraction Reagent (ThermoFisher) with the addition of Halt Protease Inhibitor Cocktail (ThermoFisher) and 1 mM sodium orthovanadate. Samples were resolved by electrophoresis using 4-20% SDS-polyacrylamide gels (Bio-Rad) under denaturing and reducing conditions. Proteins were then electrotransferred to a PVDF membrane (Bio-Rad). The membrane was blocked with 3% BSA and then subjected to immunoblot analysis using AKT/MAPK Signaling Pathway Antibody Cocktail (ab151279) (Abcam) and secondary goat anti-rabbit IgG-HRP (sc-2030) (Santa Cruz Biotechnology). Chemiluminescent detection was performed by using SuperSignal West Pico PLUS chemiluminescent substrate (ThermoFisher) according to the manufacturer's instructions.
Assays were performed in 3 biological replicates. Western blots were analyzed using ImageJl. The intensity of the protein band in each condition was normalized to the intensity of the corresponding loading control (Rab11). […]

CCCCCCCCNC(=O)[C@@H](N)CS [compound 1, H2N-L-Cys-Oct]
reduction of palmitoylation level of Gα(i) (Gα(i)): > 80%
reaction with MESNA thiopalmitate 3 (cleavage of model S-palmitoyl group, ligation product 4) [1]: proceeded rapidly and irreversibly
detection of N-acylated AMD product 4 in lipid extract (LC MS/MS) (HeLa cells): detected the expected AMD product, 4
reduction of palmitoylation level of flotillin-2 (flotillin-2): 19-40%
ERK1/2 phosphorylation (ERK1/2 (pY204/pY187)): near complete abrogation
